In patent US8299086B2, “Pyrimidine derivatives” (Actelion Pharmaceuticals Ltd., priority 2007, dated 2012):
Where two headings read alike, the source gives them in different places.

Key:
[1] = tested on: circulating lymphocytes; assay: Assessment of in vivo efficacy: circulating lymphocytes after oral administration; design: species or system Wistar rats; conditions: Rattus norvegicus, Lymphocyte, read-out: Lymphocyte counts
Description: Assessment of In vivo Efficacy
The efficacy of the compounds of formula (I) is assessed by measuring the circulating lymphocytes after oral administration of 3 to 30 mg/kg of a compound of formula (I) to normotensive male Wistar rats. The animals are housed in climate-controlled conditions with a 12 h-light/dark cycle, and have free access to normal rat chow and drinking water. Blood is collected before and 3, 6 and 24 h after drug administration. Full blood is subjected to hematology using Advia Hematology system (Bayer Diagnostics, Zurich, Switzerland).
All data are presented as mean±SEM. Statistical analyses are performed by analysis of variance (ANOVA) using Statistica (StatSoft) and the Student-Newman-Keuls procedure for multiple comparisons. The null hypothesis is rejected when p<0.05.

[2] = target: recombinant human S1P1 receptor (Homo sapiens, UniProt P21453); assay: GTPγS assay to determine EC50 values; format: biochemical; conditions: 35S-GTPγS binding, membranes of CHO cells expressing recombinant human S1P1 receptor, pH 7.4
Description: GTPγS assay to determine EC50 values
GTPγS binding assays are performed in 96 well microtiter plates (Nunc, 442587) in a final volume of 200 μl, using membrane preparations of CHO cells expressing recombinant human S1P1 receptor. Assay conditions are 20 mM Hepes (Fluka, 54461), 100 mM NaCl (Fluka, 71378), 5 mM MgCl2 (Fluka, 63064), 0.1% BSA (Calbiochem, 126609), 1 μM GDP (Sigma, G-7127), 2.5% DMSO (Fluka, 41644), […] ^35S-GTPγS (Amersham Biosciences, SJ1320). The pH is 7.4. Test compounds are dissolved and diluted in 100% DMSO and pre-incubated at room temperature for 30 min in 150 μl of the above assay buffer, in the absence of ^35S-GTPγS. After addition of 50 μl of ^35S-GTPγS, the assay is incubated for 1 h at rt. The assay is terminated by transfer of the reaction mixture to a Multiscreen plate (Millipore, MAHFC1H60) using a cell harvester from Packard Biosciences, and the plates are washed with ice-cold 10 mM Na2HPO4/NaH2PO4 (70%/30%), dried, sealed at the bottom and, after addition of 25 μl MicroScint20 (Packard Biosciences, order#6013621), sealed on the top. Membrane-bound ^35S-GTPγS is measured with a TopCount from Packard Biosciences.
EC50 is the concentration of agonist inducing 50% of the maximal specific ^35S-GTPγS binding. Specific binding is determined by subtracting non-specific binding from maximal binding. Maximal binding is the amount of cpm bound to the Multiscreen plate in the presence of 10 μM of S1P. Non-specific binding is the amount of binding in the absence of an agonist in the assay.

[3] = 6 h after oral administration of 10 mg/kg to normotensive male Wistar rats, compared to animals treated with vehicle only, mean±SEM

recombinant human S1P1 receptor, sequence (P21453 whole entry): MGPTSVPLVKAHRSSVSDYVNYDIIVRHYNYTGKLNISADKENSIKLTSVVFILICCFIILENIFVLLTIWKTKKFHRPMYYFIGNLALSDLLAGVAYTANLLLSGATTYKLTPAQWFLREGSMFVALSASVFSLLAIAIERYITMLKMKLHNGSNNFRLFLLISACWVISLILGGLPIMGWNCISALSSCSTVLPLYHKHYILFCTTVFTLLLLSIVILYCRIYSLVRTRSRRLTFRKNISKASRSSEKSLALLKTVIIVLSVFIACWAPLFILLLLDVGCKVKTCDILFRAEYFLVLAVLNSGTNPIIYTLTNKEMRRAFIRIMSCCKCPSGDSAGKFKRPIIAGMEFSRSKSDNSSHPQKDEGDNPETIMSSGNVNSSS

CCNc1nc(CC)cc(-c2nc(-c3cc(C)c(OC[C@@H](O)CNC(=O)CO)c(CC)c3)no2)n1 [Example 33, N—((S)-3-{2-ethyl-4-[5-(6-ethyl-2-ethylamino-pyrimidin-4-yl)-[1,2,4]oxadiazol-3-yl]-6-methyl-phenoxy}-2-hydroxy-propyl)-2-hydroxy-acetamide]
change in vivo at 10 mg/kg [1, 3]: -65 ± 2%

Cc1cc(-c2nc(-c3cc(C)c(OCC(O)CO)c(C)c3)no2)nc(NCC(C)C)n1 (racemic) [Example 20, rac-3-{4-[5-(2-Isobutylamino-6-methyl-pyrimidin-4-yl)-[1,2,4]oxadiazol-3-yl]-2,6-dimethyl-phenoxy}-propane-1,2-diol]
change in vivo at 10 mg/kg [1, 3]: -55 ± 1%

CCc1cc(-c2noc(-c3cc(C)nc(NCC4CC4)n3)n2)cc(C)c1OC[C@@H](O)CNC(=O)CO [Example 32, N—[(S)-3-(4-{5-[2-(cyclopropylmethyl-amino)-6-methyl-pyrimidin-4-yl]-[1,2,4]oxadiazol-3-yl}-2-ethyl-6-methyl-phenoxy)-2-hydroxy-propyl]-2-hydroxy-acetamide]
change in vivo at 10 mg/kg [1, 3]: -58 ± 1%

CCc1cc(-c2noc(-c3cc(C)nc(NC(C)C)n3)n2)cc(C)c1CCC(=O)NCCO [Example 138, 3-{2-ethyl-4-[5-(2-isopropylamino-6-methyl-pyrimidin-4-yl)-[1,2,4]oxadiazol-3-yl]-6-methyl-phenyl}-N-(2-hydroxy-ethyl)-propionamide]
change in vivo at 10 mg/kg [1, 3]: -74 ± 1%

CCc1cc(-c2noc(-c3cc(C)nc(OCC(C)C)n3)n2)cc(C)c1OC[C@@H](O)CNC(=O)CO [Example 40, N—((S)-3-{2-ethyl-4-[5-(2-isobutoxy-6-methyl-pyrimidin-4-yl)-[1,2,4]oxadiazol-3-yl]-6-methyl-phenoxy}-2-hydroxy-propyl)-2-hydroxy-acetamide]
change in vivo at 10 mg/kg [1, 3]: -69 ± 2%

CCNc1nc(C)cc(-c2nc(-c3cc(C)c(OCC(O)CO)c(C)c3)no2)n1 (racemic) [Example 16, rac-3-{4-[5-(2-Ethylamino-6-methyl-pyrimidin-4-yl)-[1,2,4]oxadiazol-3-yl]-2,6-dimethyl-phenoxy}-propane-1,2-diol]
change in vivo at 10 mg/kg [1, 3]: -74 ± 1%

CCNc1nc(CC)cc(-c2nc(-c3cc(C)c(OC[C@@H](O)CO)c(CC)c3)no2)n1 [Example 65, (S)-3-{2-ethyl-4-[5-(6-ethyl-2-ethylamino-pyrimidin-4-yl)-[1,2,4]oxadiazol-3-yl]-6-methyl-phenoxy}-propane-1,2-diol]
change in vivo at 10 mg/kg [1, 3]: -60 ± 4%

CCc1cc(-c2nc(-c3cc(C)nc(NC(C)C)n3)no2)cc(C)c1OC[C@@H](O)CNC(=O)CO [Example 85, (S)—N-(3-{2-Ethyl-4-[3-(2-isopropylamino-6-methyl-pyrimidin-4-yl)-[1,2,4]oxadiazol-5-yl]-6-methyl-phenoxy}-2-hydroxy-propyl)-2-hydroxy-acetamide]
change in vivo at 10 mg/kg [1, 3]: -68 ± 1%

CCc1cc(-c2noc(-c3cc(C)nc(NC(C)C)n3)n2)cc(C)c1OC[C@@H](O)CO [Example 59, (S)-3-{2-ethyl-4-[5-(2-isopropylamino-6-methyl-pyrimidin-4-yl)-[1,2,4]oxadiazol-3-yl]-6-methyl-phenoxy}-propane-1,2-diol]
change in vivo at 10 mg/kg ([1]; po, 6 h): -69 ± 2%

CCN(CC)c1nc(C)cc(-c2nc(-c3cc(C)c(OCC(O)CNC(=O)CO)c(C)c3)no2)n1 (racemic) [Example 10, rac-N-(3-{4-[5-(2-Diethylamino-6-methyl-pyrimidin-4-yl)-[1,2,4]oxadiazol-3-yl]-2,6-dimethyl-phenoxy}-2-hydroxy-propyl)-2-hydroxy-acetamide]
change in vivo at 10 mg/kg [1, 3]: -50 ± 2%

CCc1cc(-c2noc(-c3cc(C)nc(N(CC)CC)n3)n2)cc(C)c1OC[C@@H](O)CNC(=O)CO [Example 3, N—((S)-3-{4-[5-(2-Diethylamino-6-methyl-pyrimidin-4-yl)-[1,2,4]oxadiazol-3-yl]-2-ethyl-6-methyl-phenoxy}-2-hydroxy-propyl)-2-hydroxy-acetamide]
change in vivo at 10 mg/kg [1, 3]: -70 ± 2%

CCNc1nc(C)cc(-c2nc(-c3cc(C)c(OC[C@@H](O)CNC(=O)CO)c(CC)c3)no2)n1 [Example 1, N—((S)-3-{2-Ethyl-4-[5-(2-ethylamino-6-methyl-pyrimidin-4-yl)-[1,2,4]oxadiazol-3-yl]-6-methyl-phenoxy}-2-hydroxy-propyl)-2-hydroxy-acetamide]
EC50 [2]: 1.15 nM | change in vivo at 10 mg/kg [1, 3]: -70 ± 3%

CCc1cc(-c2noc(-c3cc(C)nc(N(C)CC(C)C)n3)n2)cc(C)c1OC[C@@H](O)CNC(=O)CO [Example 29, N—[(S)-3-(2-ethyl-4-{5-[2-(isobutyl-methyl-amino)-6-methyl-pyrimidin-4-yl]-[1,2,4]oxadiazol-3-yl}-6-methyl-phenoxy)-2-hydroxy-propyl]-2-hydroxy-acetamide]
change in vivo at 10 mg/kg [1, 3]: -73 ± 2%

COc1cc(-c2noc(-c3cc(C)nc(NC(C)C)n3)n2)cc(C)c1OC[C@@H](O)CNC(=O)CO [Example 51, 2-hydroxy-N—((S)-2-hydroxy-3-{4-[5-(2-isopropylamino-6-methyl-pyrimidin-4-yl)-[1,2,4]oxadiazol-3-yl]-2-methoxy-6-methyl-phenoxy}-propyl)-acetamide]
change in vivo at 10 mg/kg ([1]; po, 6 h): -61 ± 2%
